Data from article PMC12518634, “The noncanonical function of liver-type phosphofructokinase potentiates the efficacy of HDAC inhibitors in cancer” (Signal Transduction and Targeted Therapy, 2025).
Structures can show the parent of a compound that is named as a salt. Where two headings read alike, the source gives them in different places.

Key:
783C-6 = experiment: High-throughput drug screen, CellTiter-Glo viability, 72 h; assay type: cell-based, human; set-up: AUC: scale not given here; details: for AUC: area under the dose-response curve; for EC50: 72 h, read-out: EC50
Procedure, shortened: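 Cholangiocarcinoma cells were seeded at 3000/well in 384-well plates and dosed after 24 h. Drugs were tested at 10, 1, 0.1, 0.01 and 0.001 μM in duplicate for 72 h, with viability read by CellTiter-Glo luminescence.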

1405R3 = experiment: as above; assay type: cell-based, human; set-up: AUC: scale not given here; details: 1405R3 DSRT analysis; for AUC: area under the dose-response curve; for MIN: lower asymptote of fitted dose-response curve; for EC50: fitted dose-response curve, Min.Conc.tested 1, Max.Conc.tested 10000, 72 h, read-out: EC50; for SLOPE: slope of fitted dose-response curve
Procedure, shortened: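 Responses are drug sensitivity scores (efficacy cutoff ≥10), fitted from CellTiter-Glo luminescence. Each drug was given at five concentrations (10 to 0.001 μM, tenfold steps) in duplicate for 72 h. Cells were plated at 3000/well 24 h before dosing.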

[1] = 783C-6 DSRT analysis, DSS calculated from the dose-response curve
[2] = 783C-6 DSRT analysis, MIN of the fitted dose-response curve
[3] = 783C-6 cells, DSS of DSRT analysis
[4] = 783C-6 cells, minimum of dose-response curve
[5] = 783C-6 DSRT analysis, slope of the fitted dose-response curve
[6] = 783C-6 DSRT analysis, CellTiter-Glo viability, fitted dose-response curve, Min.Conc.tested 1, Max.Conc.tested 10000
[7] = 783C-6 cells, slope of fitted dose-response curve

| Compound | DSS (783C-6; [1]) | MIN (783C-6; [2]) | AUC (783C-6; 783C-6 DSRT analysis) | EC50 (783C-6; Homo sapiens) | DSS (1405R3; DSS) | AUC (1405R3) | MIN (1405R3) | DSS (783C-6; [3]) | AUC (783C-6; 783C-6 cells) | MIN (783C-6; [4]) | DSS (1405R3; drug sensitivity score) | EC50 (1405R3; Homo sapiens, CellTiter-Glo) | SLOPE (783C-6; [5]) | SLOPE (1405R3) | EC50 (783C-6; [6]) | EC50 (1405R3; CellTiter-Glo) | SLOPE (783C-6; [7]) | EC50 (1405R3; Homo sapiens, CellTiter-Glo viability, GI50) |
| --- | --- | --- | --- | --- | --- | --- | --- | --- | --- | --- | --- | --- | --- | --- | --- | --- | --- | --- |
| COc1cc(Nc2ncc3c(n2)-c2ccc(Cl)cc2C(c2c(F)cccc2OC)=NC3)ccc1C(=O)O [Alisertib] | 3.7 | 73.6 | 52.1 | 108 nM | 0.1 | 15.4 | 89 |  |  |  |  |  |  |  |  |  |  |  |
| COc1cccc2c1c(O)c(C(=O)N(C)c1ccc(C(F)(F)F)cc1)c(=O)n2C [Tasquinimod] |  |  |  |  |  | 0.1 | 100 | 0 | 1.7 | 96 | 0 |  |  |  |  |  |  |  |
| COc1cccc2c1C(=O)c1c(O)c3c(c(O)c1C2=O)C[C@@](O)(C(=O)CO)C[C@@H]3O[C@H]1C[C@H](N)[C@@H](O)[C@H](C)O1 [Epirubicin] | 13.9 | 33.9 | 113.1 | 194 nM | 7.1 | 64.9 | 27.7 |  |  |  |  | 1310 nM |  |  |  |  |  |  |
| O=C(O)c1ccc(Nc2ncc3c(n2)-c2ccc(Cl)cc2C(c2c(F)cccc2F)=NC3)cc1 [MLN8054] | 0 | 70.8 | 8.8 |  | 0 | 6.8 | 90.2 |  |  |  |  |  |  |  |  |  |  |  |
| O=C(NO)c1cnc(NC2(c3cccc(F)c3)CCCCC2)nc1 [ACY-775] | 0 | 97.3 | 2.4 |  | 0 | 0.4 | 98.9 |  |  |  |  |  | -0.3 | -0.9 |  |  |  |  |
| COc1cc2ncnc(Nc3ccc(F)c(Cl)c3)c2cc1OCCCN1CCOCC1 [Gefitinib] | 2.5 | 77.5 | 27 |  | 3.6 | 33.5 | 70.6 |  |  |  |  |  |  |  |  |  |  |  |
| COc1cc2c(NC3CCN(C)CC3)cc(-c3ccc(C)o3)nc2cc1OCCCN1CCCC1 [CM272] | 13.1 | 28.5 | 107.8 |  | 6.8 | 59.8 | 15.5 |  |  |  |  |  | -2.5 | -2.5 | 311 nM | 1980 nM |  |  |
| C#Cc1cccc(Nc2ncnc3cc(OCCOC)c(OCCOC)cc23)c1 [Erlotinib HCl] | 0 | 77 | 6.9 |  | 0 | 27.3 | 82.4 |  |  |  |  |  |  |  |  |  |  |  |
| COc1cc2nccc(Oc3ccc(NC(=O)NC4CC4)c(Cl)c3)c2cc1C(N)=O [Lenvatinib] | 0 | 93.6 | 8.6 |  | 0 | 0.1 | 99.3 |  |  |  |  |  |  |  |  |  |  |  |
| (-)-Parthenolide | 2.7 | 68.4 | 26.5 |  | 3.6 | 33.7 | 34.2 |  |  |  |  |  | -2.5 | -2.5 | 1460 nM | 3140 nM |  |  |
| O=C(CCCCCCC(=O)NO)NO [Suberohydroxamic acid] |  |  |  |  |  | 0.5 | 98 | 0 | 1.4 | 95.2 | 0 |  |  |  |  |  |  |  |
| O=C(NNc1ccccn1)c1ccccn1 [PFI-90] |  |  |  |  |  | 8.1 | 93.5 | 0 | 10.9 | 92.2 | 0 |  |  | -0.2 |  |  | -2.5 |  |
| CC[C@H](C)n1cc(C)c2c(C(=O)NCc3c(C)cc(C)[nH]c3=O)cc(-c3ccc(N4CCNCC4)nc3)cc21 [GSK126] | 0 | 91 | 2.7 |  | 0 | 22.4 | 85.6 |  |  |  |  |  | -1 | -0.1 |  |  |  |  |
| O=C(NCC1(c2nc(-c3ccccc3)cs2)CCOCC1)c1cccc(-c2noc(C(F)(F)F)n2)c1 [TMP269] |  |  |  |  |  | 24.8 | 87 | 2.5 | 50.1 | 84.2 | 0 |  |  | -0.2 |  |  | -0.3 |  |
| COc1cc(C)[nH]c(=O)c1CNC(=O)c1c(C)n([C@H](C)C2CCOCC2)c2ccccc12 [CPI-360] | 0.1 | 84.8 | 36.1 |  | 0 | 11.9 | 92.3 |  |  |  |  |  |  |  |  |  |  |  |
| CCCC(CCC)C(=O)O [Valproic acid sodium salt] |  |  |  |  |  | 8.4 | 92.2 | 0 | 4.4 | 85.4 | 0 |  |  |  |  |  |  |  |
| CCC(CC)n1ccc2c(C(=O)NCc3c(C)cc(C)[nH]c3=O)cc(C#N)cc21 [EI1] | 0 | 98.2 | 0.7 |  | 0 | 0.1 | 100 |  |  |  |  |  | -0.8 | -0.1 |  |  |  |  |
| CCCCCCCc1ccc(CCc2cccc(O)c2C(=O)O)cc1 [MG149] | 0 | 87.6 | 3.7 |  | 0 | 18.5 | 85.7 |  |  |  |  |  | -1 | -0.2 |  |  |  |  |
| Cc1noc2c1-c1ccccc1C(c1ccc(Cl)cc1)=N[C@H]2CC(N)=O [CPI-0610] | 0.7 | 84.7 | 34.4 |  | 6.7 | 64.6 | 49.2 |  |  |  |  | 566 nM |  |  |  |  |  |  |
| AZD4547 | 3.2 | 54.8 | 29.6 |  | 0 | 4.8 | 88.1 |  |  |  |  |  |  |  | 2230 nM |  |  |  |
| CN1CCN(c2ccc3nc(-c4c(N)c5c(F)cccc5[nH]c4=O)[nH]c3c2)CC1 [Dovitinib] | 4.1 | 35.6 | 37 | 2700 nM | 4.2 | 38.6 | 29.8 |  |  |  |  | 2870 nM |  |  |  |  |  |  |
| Cc1sc2c(c1C)C(c1ccc(Cl)cc1)=N[C@@H](CC(=O)Nc1ccc(O)cc1)c1nnc(C)n1-2 [OTX015] |  |  |  |  |  | 90.2 | 24.3 | 0 | 6.1 | 90.3 | 10.4 |  |  |  |  |  |  | 649 nM |
| CCCC(=O)[O-].[Na+] [Sodium butyrate] |  |  |  |  |  | 0.1 | 100 | 0 | 0.1 | 100 | 0 |  |  | -0.1 |  |  | -0.1 |  |
